Results reported in publication PMC11928584, “H105A peptide eye drops promote photoreceptor survival in murine and human models of retinal degeneration” (Communications Medicine, 2025).
Where a SMILES comes first, the peptide text is derived from it.

Tests used:
Assay type in all cases: in vivo, mouse
[1] = system: photoreceptors of rd10 mice; test: PSVue-550 fluorescence fundoscopy of photoreceptor cell death (PS externalization); conditions: daily eye drops 5 µl of 1 mg/ml from P15, PSVue-550 fundoscopy P21
Text: (§1) Fluorescence fundoscopy with a cell death probe was chosen as a simple method for monitoring photoreceptor cell death in alive animals. A fluorescent probe, bis (zinc^2+-dipicolylamine)-550, (PSVue®-550) (Molecular Targeting Technologies Inc, cat. P-1005) was reconstituted in Hanks’ Balanced Salt Solution (HBSS, Quality Biological, cat. 114-062-101) according to the manufacturer’s instructions[28],[36]. This probe is suitable for in vivo use to specifically and transiently label dying photoreceptors, such as in living rats with retinal degeneration the Royal College of Surgeons rat model, in a non-invasive and non-toxic method without the need of intraocular injection. Briefly, a stock of 1 mM solution of PSVue®-550 was stored in the dark at 4 °C and used within 14 days directly as eye drop. After 3-4 h of light onset each mouse received eye drops of 5–10 μl of 1 mM PSVue®-550 in the left eye and HBSS in the right eye as control. The eye drop volume was chosen such that the eye cavity was filled without spillage outside the eye, and it was modified depending on eye size. […] To obtain in vivo retinal images of fundi, at 24 h after the probe was administered, the mice were anesthetized, and pupils were dilated with 1% tropicamide for 5 min and kept hydrated with GenTeal. Fluorescence was imaged using a retinal imaging microscope (Micron III, Phoenix Research Labs) using an FF02- 475/50 nm excitation filter (Semrock, Inc.). We observed some variability in optic nerve (ON) fluorescence that could not be readily explained, so the optic nerve was excluded from analyses in all samples.
(§2) To determine the natural history of photoreceptor death of rd10 and rd10/Serpinf1^-/- mice, we assessed photoreceptor cell death in live mice using the fluorescent probe termed PSVue® 550 to monitor PS externalization by fluorescence fundoscopy (Supplementary Fig. 2). Given the reports about the retinas of rd10 mice starting to show histological changes at P16, and with a peak in the number of TUNEL+ nuclei in the ONL at P17-18[13], we monitored PS externalization in photoreceptors of these mice undergoing degeneration before death onset. Eye drops of 1 mM PSVue® 550 solution in HBSS were administered to left eyes and HBSS (vehicle) to their contralateral right eyes of each mouse at ages P16, P20, P22 or P24. PS externalization was determined by fluorescence fundoscopy 24 h post-administration. PSVue labeling of phosphatidylserine (PS) externalization associated with photoreceptor cell death in the rd10 retina (Supplementary Figs. 2, 3).
(§3) Fig. 2 Effect of PEDF peptide eye drops on protection against photoreceptor cell death in rd10 and rd10/Serpinf1^-/- mice. a Illustration of the experimental timeline of peptide application. Eye drops containing 5 µl of 17-mer, H105A, or R99A peptides in HBSS were administered daily to eyes of rd10 and rd10/Serpinf1^-/- mice from P15 to P20. Vehicle (HBSS) was applied in contralateral eyes. At P20, PSVue® was applied via eye drops, and fluorescence fundoscopy was conducted at P21 to assess photoreceptor cell death. RE and LE refer to the right and left eyes, respectively. b Fluorescence fundoscopy micrographs. Representative fluorescence fundoscopy images of retinas from mice treated as in Panel a with eyedrops of 1 mg/ml of each peptide. Quantification of fluorescence intensity was performed using ImageJ, with average intensity values corrected for background fluorescence from eyes that had not received PSVue or peptides. Each line represents data from one animal comparing treated and contralateral eyes, with five eyes (n = 5) per condition. Statistical significance was determined by paired t-test (****p ≤ 0.0001, and ns > 0.05). Scale bar = 0.5 mm. c Dose response of peptide eye drops. Representative fluorescence fundoscopy micrographs showing retinas treated with varying concentrations of 17-mer and H105A peptides (0.0 mg/ml to 1.0 mg/ml) in rd10 and rd10/Serpinf1^-/- mice. […]

[2] = system: photoreceptors of rd10/Serpinf1-/- mice; test: as above; conditions: daily eye drops 5 µl of 1 mg/ml from P15, PSVue-550 fundoscopy P21
Text: as §1, §2, §3

[3] = system: retinal function of rd10 mice; test: Electroretinogram (scotopic a- and b-wave), rd10 mice; conditions: daily eye drops of labeled peptide P15-P20, ERG P21, n=3
Procedure: Electroretinogram (ERG) for rd10 and rd10/Serpinf1^-/- mice were dark-adapted overnight and recorded in both eyes of each animal using an Espion E2 system with ColorDome (Diagnosys LLC) with a heated surface. Briefly, pupils were dilated with 1% tropicamide (Akorn, NDC: 17478-101-12) for 10 min and mice were anesthetized with intraperitoneal injection of Zetamine™ (Ketamine hydrochloride injection, USP; VetOne, NDC 13985-584-10) at 92.5 mg/kg, and AnaSed® (xylazine injection, Akorn Pharmaceuticals, NDC 59399-110-20) at 5.5 mg/kg. Mice were placed on the heated surface and electrodes were placed in the mouth and a subdermal platinum needle electrode was placed in the back of the mouse to serve as ground. Responses were elicited with increasing light impulses with intensity from 0.0001 to 10 cd-seconds per meter squared (cd.s/m^2). Amplitudes for a-wave were measured from stimulus to the trough of the a-wave and b-wave amplitudes were measured from a-wave to b-wave trough or peak. The values from the a and b waves for both eyes were exported to Microsoft Excel to obtained amplitude values for each mouse.
Fig. 5 Effect of daily eyedrops of PEDF peptides on ERG a-wave and b-wave retinal function. a Illustration of the experimental timeline of peptide application. RE and LE refer to the right and left eyes, respectively. Representative ERG waveforms for rd10 (b) and rd10/Serpinf1^-/- (c) mice at P21 in response to a light flash (1 cd.s/m²). Amplitude (y-axis) is plotted against time in milliseconds (ms, x-axis). Treatments are indicated to the right of each plot and are color coded, with control wild type C57BL/6 J mice without peptide treatment shown in blue. A-wave and b-wave are indicated by arrows. Photoreceptor a-wave amplitudes. Averages of photoreceptor a-wave amplitudes for rd10 (d) and rd10/Serpinf1^-/- (e) mice as a function of light intensity (cd/s.m², x-axis). Responses of animals treated with 17-mer are shown in green, H105A in black, and vehicle (HBSS) in red. Wildtype responses are shown in blue. Bipolar cell b-wave amplitudes. Averages of bipolar cell b-wave amplitudes for rd10 (f) and rd10/Serpinf1^-/- (g) mice as a function of light intensity (cd/s.m², x-axis), with treatments as indicated in panels. The number of mice evaluated for the data shown in Panels d-g was five (n = 5) for each rd10, rd10/Serpinf1^-/- and wild type. Each data point represents the average ± SD of each genotype, analyzed by ANOVA with Dunnett’s multiple comparisons. Statistical significance between H105A and vehicle is indicated by ##p ≤ 0.01, ###p ≤ 0.001, ####p ≤ 0.0001, and between H105A and 17-mer by **p ≤ 0.01, ***p ≤ 0.001, ****p ≤ 0.0001.

Molecule | ERG a-wave and b-wave retinal function [3] | PS externalization / photoreceptor cell death vs vehicle [1] | PS externalization / photoreceptor cell death vs vehicle [2]
CC[C@H](C)[C@H](NC(=O)[C@H](CC(=O)O)NC(=O)[C@@H]1CCCN1C(=O)[C@H](CO)NC(=O)[C@H](CO)NC(=O)[C@@H](NC(=O)[C@H](CC(C)C)NC(=O)[C@H](CC(=O)O)NC(=O)[C@H](Cc1ccc(O)cc1)NC(=O)[C@H](Cc1ccc(O)cc1)NC(=O)[C@H](CC(C)C)NC(=O)[C@H](C)NC(=O)[C@H](CCCNC(=N)N)NC(=O)[C@H](C)NC(=O)[C@@H](NC(=O)[C@@H](NC(=O)[C@H](CO)NC(=O)[C@H](CCC(=O)O)NC(=O)[C@@H](NC(=O)[C@H](CCCNC(=N)N)NC(=O)[C@H](CCC(N)=O)NC(=O)[C@H](CCC(=O)O)NC(=O)[C@H](C)NC(=O)CNC(=O)[C@H](CC(C)C)NC(=O)[C@@H](N)CO)[C@@H](C)O)[C@@H](C)CC)[C@@H](C)CC)[C@@H](C)CC)C(=O)N[C@@H](Cc1c[nH]cn1)C(=O)NCC(=O)N[C@H](C(=O)O)[C@@H](C)O [29-mer[H105A]] (H-SLGAEQRTESIIARALYYDLISSPDIHGT-OH) | – | no reduction in photoreceptor cell death | no reduction in photoreceptor cell death
CC[C@H](C)[C@H](NC(=O)[C@H](CC(=O)O)NC(=O)[C@@H]1CCCN1C(=O)[C@H](CO)NC(=O)[C@H](CO)NC(=O)[C@@H](NC(=O)[C@H](CC(C)C)NC(=O)[C@H](CC(=O)O)NC(=O)[C@H](Cc1ccc(O)cc1)NC(=O)[C@H](Cc1ccc(O)cc1)NC(=O)[C@H](CC(C)C)NC(=O)[C@H](C)NC(=O)[C@H](CCCNC(=N)N)NC(=O)[C@H](Cc1c[nH]cn1)NC(=O)[C@@H](NC(=O)[C@@H](NC(=O)[C@H](CO)NC(=O)[C@H](CCC(=O)O)NC(=O)[C@@H](NC(=O)[C@H](CCCNC(=N)N)NC(=O)[C@H](CCC(N)=O)NC(=O)[C@H](CCC(=O)O)NC(=O)[C@H](C)NC(=O)CNC(=O)[C@H](CC(C)C)NC(=O)[C@@H](N)CO)[C@@H](C)O)[C@@H](C)CC)[C@@H](C)CC)[C@@H](C)CC)C(=O)N[C@@H](Cc1c[nH]cn1)C(=O)NCC(=O)N[C@H](C(=O)O)[C@@H](C)O [29-mer] (H-SLGAEQRTESIIHRALYYDLISSPDIHGT-OH) | – | no reduction in photoreceptor cell death | no reduction in photoreceptor cell death
AlexaFl-QRTESIIHRALYYDLIS-COOH [AlexaFl-488-17-mer, 17-mer peptide conjugated to Alexa Fluor 488 dye] | improved retinal function | – | –

Now from value to molecule, other results behind:

ERG a-wave and b-wave retinal function [3] | Molecule | PS externalization / photoreceptor cell death vs vehicle [1] | PS externalization / photoreceptor cell death vs vehicle [2]
showed no improvement | AlexaFl-QATESIIHRALYYDLIS-COOH [AlexaFl-488-R99A, R99A peptide conjugated to Alexa Fluor 488 dye] | – | –
improved retinal function | AlexaFl-QRTESIIARALYYDLIS-COOH [AlexaFl-488-H105A, H105A peptide conjugated to Alexa Fluor 488 dye] | – | –
